Test results taken from patent US20150105252A1, “SUBSTITUTED PYRAZOLES AS HERBICIDES” (E I DU PONT DE NEMOURS AND COMPANY, priority 2013, published 2015).

What was measured:
[1] = tested on: bluegrass; test: Test D preemergence; format: in vivo, Poa annua; conditions: scale 0 to 100
Method in brief: (§1)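 Preemergence: seeds sown in silt loam and sprayed with compounds in a non-phytotoxic solvent with surfactant; postemergence: plants at 2 to 18 cm (1- to 4-leaf stage) in peat-based medium treated likewise. After 14 to 21 days in controlled growth conditions, injury rated visually versus controls on 0 (no effect) to 100 (complete control) scale.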

[2] = tested on: blackgrass; test: Test D preemergence; format: in vivo, Alopecurus myosuroides; conditions: scale 0 to 100
Method in brief: as §1

[3] = tested on: galium; test: Test D preemergence; format: in vivo, Galium aparine; conditions: scale 0 to 100
Method in brief: as §1

[4] = tested on: field poppy; test: Test D preemergence; format: in vivo, Papaver rhoeas; conditions: scale 0 to 100
Method in brief: as §1

[5] = tested on: foxtail, green; test: Test D preemergence; format: in vivo, Setaria viridis; conditions: scale 0 to 100
Method in brief: as §1

[6] = tested on: lambsquarters; test: Test D preemergence; format: in vivo, Chenopodium album; conditions: scale 0 to 100
Method in brief: as §1

[7] = tested on: mustard, wild; test: Test D preemergence; format: in vivo, Sinapis arvensis; conditions: scale 0 to 100
Method in brief: as §1

[8] = tested on: ryegrass, Italian; test: Test D postemergence; format: in vivo, Lolium multiflorum; conditions: scale 0 to 100
Method in brief: as §1

[9] = tested on: wheat, spring; test: Test D postemergence; format: in vivo, Triticum aestivum; conditions: scale 0 to 100
Method in brief: as §1

[10] = tested on: wheat, winter; test: Test D postemergence; format: in vivo, Triticum aestivum; conditions: scale 0 to 100
Method in brief: as §1

[11] = tested on: corn; test: Test F preemergence; format: in vivo, Zea mays
Text: (§2) Seeds of plant species selected from corn (Zea mays), soybean (Glycine max), velvetleaf (Abutilon theophrasti), lambsquarters (Chenopodium album), wild poinsettia (Euphorbia heterophylla), pigweed, palmer (palmer pigweed, Amaranthus palmeri), common waterhemp (Amaranthus rudis), surinam grass (Brachiaria decumbens), large crabgrass (Digitaria sanguinalis), crabgrass, Brazil (Brazilian crabgrass, Digitaria horizontalis), fall panicum (Panicum dichotomiflorum), giant foxtail (Setaria faberii), green foxtail (Setaria viridis), goosegrass (Eleusine indica), johnsongrass (Sorghum halepense), common ragweed (Ambrosia elation), barnyardgrass (Echinochloa crus-galli), southern sandbur (Cenchrus echinatus), arrowleaf sida (Sida rhombifolia), Italian ryegrass (Lolium multiflorum), dayflower, VA (Virginia (VA) dayflower, Commelina virginica), field bindweed (Convolvulus arvensis), cocklebur (common cocklebur, Xanthium strumarium), morningglory (Ipomoea coccinea), nightshade (eastern black nightshade, Solanum ptycanthum), kochia (Kochia scoparia), yellow nutsedge (Cyperus esculentus), and hairy beggarticks (Bidens pilosa), were planted into a silt loam soil and treated preemergence with test chemicals formulated in a non-phytotoxic solvent mixture which included a surfactant.
(§3) At the same time, plants from these crop and weed species and also horseweed (Canada horseweed, Conyza canadensis), smartweed (ladysthumb smartweed, Polygonum persicaria), waterhemp_RES1, (ALS & Triazine resistant common waterhemp, Amaranthus rudis), and waterhemp_RES2, (ALS & HPPD resistant common waterhemp, Amaranthus rudis) were treated with postemergence applications of test chemicals formulated in the same manner. Plants ranged in height from 2 to 18 cm for postemergence treatments (1- to 4-leaf stage). Treated plants and controls were maintained in a greenhouse for 14 to 21 days, after which time all species were compared to controls and visually evaluated. Plant response ratings, summarized in Table F, are based on a scale of 0 to 100 where 0 is no effect and 100 is complete control. A dash (-) response means no test result.

[12] = tested on: soybean; test: Test F preemergence; format: in vivo, Glycine max
Method in brief: (§4)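 Visual rating 0–100 vs untreated controls (0 = no effect, 100 = complete control) after 14–21 d greenhouse. Pre: seeds in silt loam soil. Post: plants 2–18 cm, 1–4 leaf. Formulation: non-phytotoxic solvent mix + surfactant.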

[13] = tested on: pigweed, palmer; test: Test F preemergence; format: in vivo, Amaranthus palmeri
Text: as §2, §3

[14] = tested on: dayflower, VA; test: Test F preemergence; format: in vivo, Commelina virginica
Method in brief: as §4

[15] = Preemergence, 31 g ai/ha, scale 0 to 100
[16] = Preemergence, 62 g ai/ha, scale 0 to 100
[17] = Preemergence, 125 g ai/ha, scale 0 to 100
[18] = preemergence, 8 g ai/ha, scale 0 to 100, 100 is complete control
[19] = preemergence, 16 g ai/ha, scale 0 to 100, 100 is complete control

In the case of `CCCc1cc(C(=O)NCC(F)(F)F)nn1Cc1ccnc(C(F)(F)F)c1` [Compound 105], the “Plant response rating, Bluegrass” value ([1]; 31 g ai/ha) is reported as 55, the “Plant response rating, Bluegrass” value ([1]; 62 g ai/ha) is reported as 80 and the “Plant response rating, Bluegrass” value ([1]; 125 g ai/ha) is reported as 100. The “Plant response rating, Bluegrass” value ([1]; 250 g ai/ha) was 100, the “Plant response rating, Blackgrass” value ([2]; 31 g ai/ha) was 25 and the “Plant response rating, Blackgrass” value ([2]; 62 g ai/ha) was 80. The “Plant response rating, Blackgrass” value ([2]; 125 g ai/ha) was 100, the “Plant response rating, Blackgrass” value ([2]; 250 g ai/ha) was 100 and the “Plant response rating, Galium” value ([3]; 31 g ai/ha) was 100. The “Plant response rating, Galium” value ([3]; 62 g ai/ha) was 100, the “Plant response rating, Galium” value ([3]; 125 g ai/ha) was 100 and the “Plant response rating, Galium” value ([3]; 250 g ai/ha) was 100. The “Plant response rating, Field Poppy” value ([4]; 31 g ai/ha) was 100, the “Plant response rating, Field Poppy” value ([4]; 62 g ai/ha) was 100 and the “Plant response rating, Field Poppy” value ([4]; 125 g ai/ha) was 100. The “Plant response rating, Field Poppy” value ([4]; 250 g ai/ha) was 100, the “Plant response rating, Foxtail, Green” value ([5]; 31 g ai/ha) was 45 and the “Plant response rating, Foxtail, Green” value ([5]; 62 g ai/ha) was 100. For the same compound, the “Plant response rating, Foxtail, Green” value ([5]; 125 g ai/ha) was 100, the “Plant response rating, Foxtail, Green” value ([5]; 250 g ai/ha) was 100 and the “Plant response rating, Lambsquarters” value ([6]; 31 g ai/ha) was 100. The “Plant response rating, Lambsquarters” value ([6]; 62 g ai/ha) was 100, the “Plant response rating, Lambsquarters” value ([6]; 125 g ai/ha) was 100 and the “Plant response rating, Lambsquarters” value ([6]; 250 g ai/ha) was 100. For the same compound, the “Plant response rating, Mustard, Wild” value ([7]; 31 g ai/ha) was 100, the “Plant response rating, Mustard, Wild” value ([7]; 62 g ai/ha) was 100 and the “Plant response rating, Mustard, Wild” value ([7]; 125 g ai/ha) was 100. For the same compound, the “Plant response rating, Mustard, Wild” value ([7]; 250 g ai/ha) was 100, the “Ryegrass, Italian plant response rating” value ([8]; Postemergence, 31 g ai/ha) was 5 and the “Ryegrass, Italian plant response rating” value ([8]; Postemergence, 125 g ai/ha) was 40. For the same compound, the “Ryegrass, Italian plant response rating” value ([8]; Postemergence, 250 g ai/ha) was 65, the “Ryegrass, Italian plant response rating” value ([8]; postemergence, 62 g ai/ha) was 5 and the “Wheat, Spring plant response rating” value ([9]; Postemergence, 31 g ai/ha) was 5. The “Wheat, Spring plant response rating” value ([9]; Postemergence, 125 g ai/ha) was 20, the “Wheat, Spring plant response rating” value ([9]; Postemergence, 250 g ai/ha) was 40 and the “Wheat, Spring plant response rating” value ([9]; postemergence, 62 g ai/ha) was 10. For the same compound, the “Wheat, Winter plant response rating” value ([10]; Postemergence, 31 g ai/ha) was 10, the “Wheat, Winter plant response rating” value ([10]; Postemergence, 125 g ai/ha) was 40 and the “Wheat, Winter plant response rating” value ([10]; Postemergence, 250 g ai/ha) was 70. For the same compound, the “Wheat, Winter plant response rating” value ([10]; postemergence, 62 g ai/ha) was 15, the “Plant response rating, Corn” value [11, 15] was 40 and the “Plant response rating, Corn” value [11, 16] was 40. The “Plant response rating, Corn” value [11, 17] was 60, the “Plant response rating, Corn” value [11, 18] was 20 and the “Plant response rating, Corn” value [11, 19] was 30. The “Plant response rating, Soybean” value [12, 15] was 100, the “Plant response rating, Soybean” value [12, 16] was 80 and the “Plant response rating, Soybean” value [12, 17] was 100. The “Plant response rating, Soybean” value [12, 18] was 0, the “Plant response rating, Soybean” value [12, 19] was 0 and the “Plant response rating, Pigweed, Palmer” value [13, 16] was 50. The “Plant response rating, Pigweed, Palmer” value [13, 17] was 80, the “Plant response rating, Pigweed, Palmer” value [13, 18] was 0 and the “Plant response rating, Pigweed, Palmer” value [13, 19] was 0. For the same compound, the “Plant response rating, Dayflower, VA” value [14, 15] was 50, the “Plant response rating, Dayflower, VA” value [14, 16] was 80 and the “Plant response rating, Dayflower, VA” value [14, 17] was 98. The “Plant response rating, Dayflower, VA” value [14, 18] was 0 and the “Plant response rating, Dayflower, VA” value [14, 19] was 40.

With `CCOc1cc(C(=O)NC(C)C)nn1Cc1ccnc(C(F)(F)F)c1` [Compound 188] the “Plant response rating, Bluegrass” value ([1]; 31 g ai/ha) was 55, the “Plant response rating, Bluegrass” value ([1]; 62 g ai/ha) was 70 and the “Plant response rating, Bluegrass” value ([1]; 125 g ai/ha) was 100. For the same compound, the “Plant response rating, Bluegrass” value ([1]; 250 g ai/ha) was 100, the “Plant response rating, Blackgrass” value ([2]; 31 g ai/ha) was 55 and the “Plant response rating, Blackgrass” value ([2]; 62 g ai/ha) was 75. For the same compound, the “Plant response rating, Blackgrass” value ([2]; 125 g ai/ha) was 100, the “Plant response rating, Blackgrass” value ([2]; 250 g ai/ha) was 100 and the “Plant response rating, Galium” value ([3]; 62 g ai/ha) was 95. For the same compound, the “Plant response rating, Galium” value ([3]; 125 g ai/ha) was 100, the “Plant response rating, Galium” value ([3]; 250 g ai/ha) was 100 and the “Plant response rating, Field Poppy” value ([4]; 62 g ai/ha) was 100. For the same compound, the “Plant response rating, Field Poppy” value ([4]; 125 g ai/ha) was 100, the “Plant response rating, Field Poppy” value ([4]; 250 g ai/ha) was 100 and the “Plant response rating, Foxtail, Green” value ([5]; 62 g ai/ha) was 100. The “Plant response rating, Foxtail, Green” value ([5]; 125 g ai/ha) was 100, the “Plant response rating, Foxtail, Green” value ([5]; 250 g ai/ha) was 100 and the “Plant response rating, Lambsquarters” value ([6]; 62 g ai/ha) was 100. The “Plant response rating, Lambsquarters” value ([6]; 125 g ai/ha) was 100, the “Plant response rating, Lambsquarters” value ([6]; 250 g ai/ha) was 100 and the “Plant response rating, Mustard, Wild” value ([7]; 62 g ai/ha) was 100. The “Plant response rating, Mustard, Wild” value ([7]; 125 g ai/ha) was 100, the “Plant response rating, Mustard, Wild” value ([7]; 250 g ai/ha) was 100 and the “Ryegrass, Italian plant response rating” value ([8]; Postemergence, 31 g ai/ha) was 20. For the same compound, the “Ryegrass, Italian plant response rating” value ([8]; Postemergence, 125 g ai/ha) was 25, the “Ryegrass, Italian plant response rating” value ([8]; Postemergence, 250 g ai/ha) was 65 and the “Ryegrass, Italian plant response rating” value ([8]; postemergence, 62 g ai/ha) was 20. For the same compound, the “Wheat, Spring plant response rating” value ([9]; Postemergence, 31 g ai/ha) was 10, the “Wheat, Spring plant response rating” value ([9]; Postemergence, 125 g ai/ha) was 15 and the “Wheat, Spring plant response rating” value ([9]; Postemergence, 250 g ai/ha) was 40. For the same compound, the “Wheat, Spring plant response rating” value ([9]; postemergence, 62 g ai/ha) was 10, the “Wheat, Winter plant response rating” value ([10]; Postemergence, 31 g ai/ha) was 25 and the “Wheat, Winter plant response rating” value ([10]; Postemergence, 125 g ai/ha) was 30. For the same compound, the “Wheat, Winter plant response rating” value ([10]; Postemergence, 250 g ai/ha) was 65, the “Wheat, Winter plant response rating” value ([10]; postemergence, 62 g ai/ha) was 25 and the “Plant response rating, Corn” value [11, 16] was 15. The “Plant response rating, Corn” value [11, 17] was 65, the “Plant response rating, Corn” value [11, 18] was 20 and the “Plant response rating, Soybean” value [12, 16] was 30. The “Plant response rating, Soybean” value [12, 17] was 85, the “Plant response rating, Soybean” value [12, 18] was 0 and the “Plant response rating, Pigweed, Palmer” value [13, 17] was 50. For the same compound, the “Plant response rating, Pigweed, Palmer” value [13, 18] was 0, the “Plant response rating, Dayflower, VA” value [14, 16] was 90 and the “Plant response rating, Dayflower, VA” value [14, 17] was 100. For the same compound, the “Plant response rating, Dayflower, VA” value [14, 18] was 0.
